According to patent publication US20180238860A1, “INDIVIDUAL METHOD PREDICTIVE OF THE DNA-BREAKING GENOTOXIC EFFECTS OF CHEMICAL OR BIOCHEMICAL AGENTS” (priority 2015, published 2018):

What was measured:
Assay type in all cases: cell-based, human
HMEC cells [1] = assay: pH2AX foci 24 h after contacting, Table 4 lower part (HMEC endothelial cells); conditions: line cell blank (below Hasp), 24 hours after contacting
Procedure: (§1) In one embodiment, on receipt, the tissue sample (typically the biopsy) is established in the form of an amplifiable cell line without a viral or chemical transformation agent according to an ancillary procedure well known to culture laboratories, as underlined by the publication of Elkind et al. “The radiobiology of cultured mammalian cell”, Gordon and Breach (1967). Once the number of cells is sufficient (typically after 1 to 3 weeks), the first experiments are carried out using the process according to the invention. A cell sample is prepared: The cells are inoculated on glass coverslips in Petri dishes. A portion of these coverslips are contaminated with metals or pesticides or any other DNA-breaking chemical or biochemical agent at different concentrations. A further portion is not contaminated; it represents the spontaneous state. During contamination, the cells remain in the culture incubator at 37° C.
(§2) For the contaminated cells, characteristics are acquired corresponding to the state after an incubation time with the DNA-breaking chemical or biochemical agent. Said characteristics are represented by foci corresponding to the marker pH2AX. The cells on glass coverslips are then fixed, lysed and hybridized. The following procedure, known per se (Bodgi et al, “A single formula to describe radiation-induced protein relocalization: towards a mathematical definition of individual radiosensitivity”, J Theor Biol. 21 p 333:135-45.2013):
(§3) the cells are fixed in 3% paraformaldehyde and 2% sucrose for 15 minutes at ambient temperature and permeabilized in 20 mM HEPES buffer solution (4-(2-hydroxyethyl)-1-piperazine ethane sulfonic acid) at pH 7.4, 50 mM NaCl, 3 mM MgCl2, 300 mM sucrose, 0.5% Triton X-100 (a non-ionic surfactant having the formula t-Oct-C6H4-(OCH2CH2)×OH where x=9-10, CAS No. 9002-93-1, supplied for example by Sigma Aldrich) for 3 minutes. The glass coverslips are then washed in phosphate buffer saline (known as the acronym PBS) before immunological staining. The incubation took place for 40 min at 37° C. in PBS supplemented with 2% bovine serum albumin (known as the acronym BSA or fraction V, supplied for example by Sigma Aldrich) and was followed by a wash with PBS. Anti-pH2AX primary antibodies are used at a concentration of 1:800. The incubations with anti-mouse FITC or anti-rabbit TRITC secondary antibodies (1:100, supplied by Sigma Aldrich) were performed at 37° C. in 2% BSA for 20 minutes. Glass coverslips were treated with Vectashield™ containing DAPI (4,6-Diamidino-2-phenylindole) to label the nucleus. Staining with DAPI also makes it possible, indirectly, to determine the number of cells in phase G1 (nuclei with homogenous DAPI staining), in phase S (nuclei with numerous pH2AX foci), in phase G2 (nuclei with heterogeneous DAPI staining) and metaphases (visible chromosomes).
(§4) The results are acquired using these coverslips on an immunofluorescence microscope (Olympus model for example). The reading may be direct (typically by counting the foci on at least 50 cells in G0/G1 for each point) or using dedicated image analysis software, or on an automated microscope; preferably the software or automated microscope methods are calibrated with manual determinations.
(§5) The tables hereinafter summarize the results of numerous experiments which were carried out as described in the “Detailed description” section above.
(§6) In tables 3 and 4, “pH2AX” corresponds to the mean number of nuclear foci obtained with the marker pH2AX, 24 hours after contacting the cell sample with the chemical agent at the concentration C (NpH2AX(24 h, C)), and where “Micronuclei” corresponds to the mean number of micronuclei observed per 100 cells 24 hours after contacting the cell sample with the chemical agent at the concentration C(NMN(24 h, C)).

HMEC cells [2] = assay: Micronuclei per 100 cells 24 h after contacting, Table 4 lower part (HMEC); conditions: line cell blank (below Hasp)
Procedure: as §1, §3
(§7) Counterstaining with DAPI (a DNA marker known to those skilled in the art) makes it possible to locate the nucleus to situate the cytoplasmic or nuclear location to quantify the micronuclei, which are complementary cell markers to the data on the foci.
as §5, §6

Ha (astrocyte cells) [3] = assay: pH2AX foci 24 h after contacting, Ha astrocyte cells; conditions: Ha, 24 hours after contacting
Procedure: as §1, §2, §3, §4, §5
(§8) In tables 3 and 4, “pH2AX” corresponds to the mean number of nuclear foci obtained with the marker pH2AX, 24 hours after contacting the cell sample with the chemical agent at the concentration C (NpH2AX(24 h, C)), and where “Micronuclei” corresponds to the mean number of micronuclei observed per 100 cells 24 hours after contacting the cell sample with the chemical agent at the concentration C(NMN(24 h, C)). […]

Ha (astrocyte cells) [4] = assay: Micronuclei per 100 cells 24 h after contacting, Ha astrocyte cells
Procedure: as §1, §3, §7, §5, §6
(§9) Table 4 presents a detection of number of pH2AX foci and number of micronuclei 24 hours after contacting control nervous system cell lines Ha (astrocyte cells), Hah (hippocampus astrocyte cells) and Hasp (spinal cord astrocyte cells) with a metallic compound (AlCl3, Cu, CuCl2, CuSO4, Pb(NO3)2, CdCl2, Cd-acetate or Cd-acetate-citrate) according to the concentration of said metallic compound used.

[5] = system: Hah (hippocampus astrocyte cells); assay: pH2AX foci 24 h after contacting, Hah hippocampus astrocyte cells
Procedure: as §1, §2, §3, §4, §5, §8

[6] = system: Hah (hippocampus astrocyte cells); assay: Micronuclei per 100 cells 24 h after contacting, Hah
Procedure: as §1, §3, §7, §5, §6, §9

[7] = system: Hasp (spinal cord astrocyte cells); assay: pH2AX foci 24 h after contacting, Hasp spinal cord astrocyte cells
Procedure: as §1, §2, §3, §4, §5, §8

[8] = system: Hasp (spinal cord astrocyte cells); assay: Micronuclei per 100 cells 24 h after contacting, Hasp
Procedure: as §1, §3, §7, §5, §6, §9

1BR3 (control cells) = assay: pH2AX foci immunofluorescence 24 h after contacting, 1BR3 control fibroblasts; conditions: 1BR3, 24 hours after contacting (Table 3)
Procedure: as §1, §2, §3, §4
Commercial 1BR3 and 149 BR control fibroblasts were amplified according to the recommendations of the supplier (SIGMA-ALDRICH) until the number of cells sought was obtained. After obtaining a sufficient number of cells (generally after one to 3 weeks), the first experiments were conducted using the process according to the invention. The cells were inoculated on glass coverslips in Petri dishes.
The acquisition of the results was carried out using these coverslips on an immunofluorescence microscope (Olympus model). The reading was performed directly by counting the foci obtained with the marker pH2AX on at least 50 cells in G0/G1 for each point or using dedicated image analysis software (imageJ). […]

1BR3 cells = assay: Micronuclei per 100 cells 24 h after contacting, 1BR3
Procedure: as §1, §3, §7, §5, §6

Compound: O=S(=O)([O-])[O-].[Cu+2] [CuSO4]
- pH2AX (HMEC cells [1]; 3 μM): 1.9 foci
- pH2AX (HMEC cells [1]; 10 μM): 2.3 foci
- pH2AX (HMEC cells [1]; 30 μM): 3.4 foci
- pH2AX (HMEC cells [1]; 100 μM): 6.4 foci
- pH2AX (HMEC cells [1]; 300 μM): 20.1 foci
- pH2AX (HMEC cells [1]; 1000 μM): 30.2 foci
- Micronuclei (HMEC cells [2]; 3 μM): 3 per 100 cells
- Micronuclei (HMEC cells [2]; 10 μM): 5 per 100 cells
- Micronuclei (HMEC cells [2]; 30 μM): 4.7 per 100 cells
- Micronuclei (HMEC cells [2]; 100 μM): 5.3 per 100 cells
- Micronuclei (HMEC cells [2]; 300 μM): 9.3 per 100 cells
- Micronuclei (HMEC cells [2]; 1000 μM): 4 per 100 cells

Compound: [Cu] [Cu]
- pH2AX (Ha (astrocyte cells) [3]; 10 μM): 0.3 foci
- pH2AX (Ha (astrocyte cells) [3]; 30 μM): 0.62 foci
- pH2AX (Ha (astrocyte cells) [3]; 100 μM): 2.55 foci
- pH2AX (Ha (astrocyte cells) [3]; 300 μM): 0 foci
- pH2AX (Ha (astrocyte cells) [3]; 1000 μM): 0 foci
- Micronuclei (Ha (astrocyte cells) [4]; 10 μM): 4 per 100 cells
- Micronuclei (Ha (astrocyte cells) [4]; 30 μM): 5 per 100 cells
- Micronuclei (Ha (astrocyte cells) [4]; 100 μM): 13 per 100 cells
- Micronuclei (Ha (astrocyte cells) [4]; 300 μM): 20 per 100 cells
- Micronuclei (Ha (astrocyte cells) [4]; 1000 μM): 50 per 100 cells
- pH2AX ([5]; 10 μM): 1.01 foci
- pH2AX ([5]; 30 μM): 1.87 foci
- pH2AX ([5]; 100 μM): 2.62 foci
- pH2AX ([5]; 300 μM): 5.45 foci
- pH2AX ([5]; 1000 μM): 6.61 foci
- Micronuclei ([6]; 10 μM): 6 per 100 cells
- Micronuclei ([6]; 30 μM): 10.7 per 100 cells
- Micronuclei ([6]; 100 μM): 20.7 per 100 cells
- Micronuclei ([6]; 300 μM): 46.7 per 100 cells
- Micronuclei ([6]; 1000 μM): 73.3 per 100 cells
- pH2AX ([7]; 10 μM): 0.29 foci
- pH2AX ([7]; 30 μM): 0.64 foci
- pH2AX ([7]; 100 μM): 1.13 foci
- pH2AX ([7]; 300 μM): 1.78 foci
- pH2AX ([7]; 1000 μM): 2.36 foci
- Micronuclei ([8]; 10 μM): 4 per 100 cells
- Micronuclei ([8]; 30 μM): 7 per 100 cells
- Micronuclei ([8]; 100 μM): 9 per 100 cells
- Micronuclei ([8]; 300 μM): 10 per 100 cells
- Micronuclei ([8]; 1000 μM): 16 per 100 cells

Compound: Oc1c(Cl)c(Cl)c(Cl)c(Cl)c1Cl [PCP]
- pH2AX (1BR3 (control cells); 0.3 μM): 1.2 foci
- pH2AX (1BR3 (control cells); 10 μM): 1.5 foci
- pH2AX (1BR3 (control cells); 30 μM): 1.9 foci
- pH2AX (1BR3 (control cells); 100 μM): 4.3 foci
- Micronuclei (1BR3 cells; 0.3 μM): 2 per 100 cells
- Micronuclei (1BR3 cells; 3 μM): 4 per 100 cells
- Micronuclei (1BR3 cells; 10 μM): 10 per 100 cells
- Micronuclei (1BR3 cells; 50 μM): 10 per 100 cells
- Micronuclei (1BR3 cells; 100 μM): 20 per 100 cells

Compound: Cd-acetate-citrate
- pH2AX (HMEC cells [1]; 10 μM): 1 foci
- pH2AX (HMEC cells [1]; 30 μM): 4.75 foci
- pH2AX (HMEC cells [1]; 100 μM): 7 foci
